17 molecules from patent EP4778929A1, “NOVEL TYPE I TOPOISOMERASE INHIBITOR, AND PREPARATION METHOD THEREFOR AND USE THEREOF” (priority 2023, dated 2025) can be followed below.

Like-named read-outs stand apart in the source and are kept apart here.

For experiment [1], the target named is T1, topoisomerase I (Topo I) (Homo sapiens, UniProt P11387).
T1 sequence (P11387 1-765): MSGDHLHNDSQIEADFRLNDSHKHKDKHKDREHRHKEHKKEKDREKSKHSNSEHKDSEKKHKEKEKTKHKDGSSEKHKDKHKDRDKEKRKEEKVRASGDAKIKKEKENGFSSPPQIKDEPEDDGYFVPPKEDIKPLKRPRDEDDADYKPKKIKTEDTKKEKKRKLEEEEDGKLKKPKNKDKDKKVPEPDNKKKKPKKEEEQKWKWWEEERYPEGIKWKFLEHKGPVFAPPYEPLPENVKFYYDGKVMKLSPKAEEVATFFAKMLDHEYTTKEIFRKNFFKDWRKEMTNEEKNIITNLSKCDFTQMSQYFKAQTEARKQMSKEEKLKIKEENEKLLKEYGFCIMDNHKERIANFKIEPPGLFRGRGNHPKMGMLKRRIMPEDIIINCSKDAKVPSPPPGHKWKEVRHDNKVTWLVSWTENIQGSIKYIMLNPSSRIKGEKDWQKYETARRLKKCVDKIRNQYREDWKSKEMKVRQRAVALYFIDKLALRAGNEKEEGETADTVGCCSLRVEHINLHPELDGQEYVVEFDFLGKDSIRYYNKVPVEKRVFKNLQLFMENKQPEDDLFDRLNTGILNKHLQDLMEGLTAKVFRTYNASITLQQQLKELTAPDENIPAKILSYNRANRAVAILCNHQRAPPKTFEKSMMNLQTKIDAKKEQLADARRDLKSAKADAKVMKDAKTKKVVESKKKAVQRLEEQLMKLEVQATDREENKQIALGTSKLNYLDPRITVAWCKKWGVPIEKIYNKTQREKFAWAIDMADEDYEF
Description: Topo I enzyme-inhibitory activity by agarose-gel electrophoresis (plasmid relaxation). The experiment is classed as biochemical. The text has this:
Test Example 1. Determination of Topo I Enzyme-Inhibitory Activity by Agarose-Gel Electrophoresis
Principle: Type-I topoisomerase (Topo I) relaxes positive and negative supercoils by introducing transient single-strand breaks and forming reversible cleavage complexes (Topo I-DNA covalent complexes). Gel electrophoresis can resolve DNA species of identical molecular weight but different topology: supercoiled plasmid migrates fastest, whereas the nicked, relaxed form moves more slowly. Quantifying the decrease in supercoiled DNA therefore provides a direct measure of Topo I activity.
Experimental Procedure: A 1× reaction buffer was prepared (20 mM Tris-HCl pH 7.5, 200 mM NaCl, 0.25 mM EDTA, 5 % (v/v) glycerol, 0.5 µg pNO1 plasmid substrate). Test compounds (5 % DMSO final) were added to the buffer, followed by Topo I enzyme (0.75 U per reaction). After gentle mixing, reactions were incubated at 37 °C for 30 min. Positive (enzyme + vehicle) and negative (no enzyme) controls were included in parallel. Reactions were terminated by adding STEB buffer and chloroform/iso-amyl alcohol (24:1, v/v), vortexed and centrifuged for 2 min. The aqueous (upper) phase was loaded onto a 1 % (w/v) agarose gel, electrophoresed for 1-2 h, stained with GelRed, and imaged under UV trans-illumination.
Data Analysis: Band intensities of supercoiled DNA were quantified with image-analysis software. Relaxation activity (%) was calculated as (Max-Sample)/ (Max-Min)*100%, where Max = intensity of the no-enzyme negative control, Min = intensity of the vehicle-only positive control, and Sample = intensity of the compound-treated lane. Dose-response data (compound concentration, X; relaxation activity %, Y) were fitted in Excel or GraphPad Prism 5.0 using the four-parameter logistic equation: Y=Bottom + (Top-Bottom)/(1+(IC50/X)[…]) to derive the IC50 value for each compound.
Table 1. Compound-mediated inhibition of topoisomerase I (Topo I) enzymatic activity

Experiment [2] concerns HCT116 cells. Description: Inhibition of cell proliferation by CTG (CellTiter-Glo) luminescence assay. It counts as cell-based. The following applies: Homo sapiens, read-out: HCT116, IC50. From the text:
Test Example 2. Determination of Compound-Mediated Inhibition of Cell Proliferation by CTG (CellTiter-Glo) Luminescence Assay
Principle: The Promega CellTiter-Glo™ luciferase reagent was used. Luciferase consumes ATP to generate light; metabolically active cells continuously produce ATP through respiration and other processes. After adding an equal volume of CellTiter-Glo™ reagent to the culture medium, the resulting luminescence is directly proportional to the ATP content, which in turn correlates with the number of viable cells. Thus, the assay quantifies compound-induced suppression of cell proliferation.
Experimental Procedure: HCT116 cells (ATCC) were revived in complete medium (McCoy's 5a + 10 % FBS). After two passages, exponentially growing cells were harvested, counted, and resuspended to the appropriate density. A 100 µL aliquot of cell suspension (2 000 cells per well) was seeded into 96-well plates and incubated overnight (37 °C, 5 % CO2, 100 % relative humidity). Test compounds were dissolved in DMSO to prepare 10 mM stock solutions and serially diluted 1:3 in DMSO to generate nine concentration steps. Each DMSO solution was further diluted 200-fold into medium; 25 µL of the resulting solutions were added to the cell plates (final DMSO concentration […]). After 72 h incubation (37 °C, 5 % CO2), 50 µL of CellTiter-Glo reagent was added per well. Plates were shaken gently, incubated for 30 min at room temperature in the dark, and luminescence was read on an EnVision multimode reader. Percent inhibition was calculated as: Inhibition % = (1−As/Ac) × 100, [formula] where As = signal from compound-treated wells and Ac = signal from DMSO-only control wells. Concentration-response data were fitted in Excel with the XLfit add-in using the four-parameter logistic equation: Y = Bottom + (Top−Bottom)/[1+((IC50/X))^(∧)HillSlope], [formula] to derive the IC50 value for each compound. Table 2. IC50 of compounds
A general note: ATP-based viability assays read luminescence as a measure of living cells.

Where [3] appears, read: 0.75 U Topo I, pNO1 plasmid, 37 °C, 30 min; compounds listed by group (Group A / Group B); read-out: inhibition of topoisomerase I (Topo I) enzymatic activity, IC50.
[4] abbreviates: HCT-116, 72 h incubation, CellTiter-Glo.
The mark [5] stands for this setting: read-out: inhibition of topoisomerase I (Topo I) enzymatic activity, IC50; 0.75 U Topo I, pNO1 plasmid, 37 °C, 30 min; compounds listed by group (Group A / Group B).

`CC[C@@]1(O)C(=O)OCc2c1cc1n(c2=O)Cc2c-1c(=O)c1ccccc1n2C` [Example 1, (S)-4-ethyl-4-hydroxy-11-methyl-1,12-dihydro-14H-pyrano[3,4:6,7]indolizino[2,1 - b]quinoline-3,6,14(4H,11H)-trione]: the half-inhibitory concentration (IC50) in experiment [1] (setting [3]) is < 200 nM; in experiment [2] (setting [4]) it was < 20 nM.

With `CC[C@@]1(O)C(=O)OCc2c1cc1n(c2=O)Cc2c-1c(=O)c1cc(F)c(F)cc1n2C` [Example 5, (S)-4-ethyl-8,9-difluoro-4-hydroxy-11-methyl-1,12-dihydro-14H-pyrano[3',4':6,7]indolizino[2,1-b]quinoline-3,6,14(4H,11H)-trione], the IC50 in experiment [1] (setting [3]) was < 200 nM; in experiment [2] (setting [4]) it was < 20 nM.

`CC[C@@]1(O)C(=O)OCc2c1cc1n(c2=O)Cc2c-1c(=O)c1cc(F)ccc1n2C` [Example 6, (S)-4-ethyl-8-fluoro-4-hydroxy-11-methyl-1,12-dihydro-14H-pyrano[3',4':6,7]indazino[2,1-b]quinoline-3,6,14(4H,11H)-trione]: the results for the concentration for half-maximal inhibition (IC50) in experiment [1] (setting [3]) and in experiment [2] (setting [4]) were < 200 nM and < 20 nM, respectively.

As to `CC[C@@]1(O)C(=O)OCc2c1cc1n(c2=O)Cc2c-1c(=O)c1cc(F)cc(OC)c1n2C` [Example 10, (S)-4-ethyl-8-fluoro-4-hydroxy-10-methoxy-11-methyl-1,12-dihydro-14H-pyrano[3,4:6,7]indolizino[2,1-b]quinoline-3,6,14 (4H,11H)-trione], the half-maximal inhibitory concentration (IC50) in experiment [1] (setting [5]) was < 200 nM; in experiment [2] (HCT-116, 72 h) it was < 20 nM.

For the molecule `CC[C@@]1(O)C(=O)OCc2c1cc1n(c2=O)Cc2c-1c(=O)c1cc(F)cnc1n2C` [Example 19, (S)-7-ethyl-3-fluoro-7-hydroxy-14-methyl-10,14-dihydro-11H-pyrano[3',4':6,7]indolizino[2,1-b][1,8]diazepine-5,8,11(7H,13H)-trione], the concentration for half-maximal inhibition (IC50) in experiment [1] (setting [5]) is 200 to 500 nM; in experiment [2] (HCT-116, 72 h) it was < 20 nM.

As for `CCOCCc1cc(F)cc2c(=O)c3c(n(C)c12)Cn1c-3cc2c(c1=O)COC(=O)[C@]2(O)CC` [Example 23, (S)-10-(2-ethoxyethyl)-4-ethyl-8-fluoro-4-hydroxy-11-methyl-1,12-dihydro-14H-pyrano[3,4:6,7]indolizino[2,1-b]quinoline-3,6,14 (4H,11H)-trione], the IC50 in experiment [1] (setting [5]) was 200 to 500 nM; in experiment [2] (HCT-116, 72 h), < 20 nM.

`CC[C@@]1(O)C(=O)OCc2c1cc1n(c2=O)Cc2c-1c(=O)c1cc(F)cc(F)c1n2C` [Example 24, (S)-4-ethyl-8,10-difluoro-4-hydroxy-11-methyl-1,12-dihydro-14H-pyrano[3,4:6,7]indolizino[2,1-b]quinoline-3,6,14(4H,11H)-trione]: the concentration for half-maximal inhibition (IC50) is < 200 nM in experiment [1] (setting [5]) and < 20 nM in experiment [2] (HCT-116, 72 h).

Regarding `CC[C@@]1(O)C(=O)OCc2c1cc1n(c2=O)Cc2c-1c(=O)c1cc(F)ccc1n2C(C)C` [Example 36, (S)-4-ethyl-8-fluoro-4-hydroxy-11-isopropyl-1,12-dihydro-14H-pyrano[3',4':6,7]indolizino[2,1-b]quinoline-3,6,14(4H,11H)-trione], the IC50 in experiment [1] (setting [5]) is < 200 nM; in experiment [2] (HCT-116, 72 h), < 20 nM.

Turning to `CC[C@@]1(O)C(=O)OCc2c1cc1n(c2=O)Cc2c-1c(=O)c1cc(F)ccc1n2C1CC1` [Example 37, (S)-4-ethyl-8-fluoro-4-hydroxy-11-cyclopropyl-1,12-dihydro-14H-pyrano[3',4':6,7]indolizino[2,1-b]quinoline-3,6,14(4H,11H)-trione], the half-maximal inhibitory concentration (IC50) in experiment [1] (setting [5]) was < 200 nM; in experiment [2] (HCT-116, 72 h) it was < 20 nM.

As for `CC[C@@]1(O)C(=O)OCc2c1cc1n(c2=S)Cc2c-1c(=O)c1cc(F)cc(C)c1n2C` [Example 39, (S)-4-ethyl-8-fluoro-4-hydroxy-10,11-dimethyl-14-thioxo-12,14-dihydro-1H-pyrano[3',4':6,7]indolizino[2,1-b]quinoline-3,6(4H, 11H)-dione], the IC50 in experiment [1] (setting [3]) was < 200 nM; in experiment [2] (setting [4]), < 20 nM.

Consider `CC[C@@]1(O)C(=O)OCc2c1cc1n(c2=O)Cc2c-1c(=O)c1cc(F)ccc1n2-c1cnn(C)c1` [Example 57, (S)-4-ethyl-8-fluoro-4-hydroxy-11-(1-methyl-1H-pyrazol-4-yl)-1H-pyrano[3',4':6,7]indolizino[2,1-b]quinoline-3,6,14(4H,11H,12H) -trione], for which the 50% inhibitory concentration (IC50) in experiment [1] (setting [3]) was 200 to 500 nM; in experiment [2] (setting [4]), < 20 nM.

Take `CC[C@@]1(O)C(=O)OCc2c1cc1n(c2=O)Cc2c-1c(=O)c1cc(F)ccc1n2-c1cccnc1` [Example 60, (S)-4-ethyl-8-fluoro-4-hydroxy-11-(pyridin-3-yl)-1H-pyrano[3',4':6,7]indolizino[2,1-b]quinoline-3,6,14(4H,11H,12H)-trione]: the IC50 in experiment [1] (setting [3]) was 200 to 500 nM; in experiment [2] (setting [4]), < 20 nM.

Take `CC[C@@]1(O)C(=O)OCc2c1cc1n(c2=O)Cc2c-1c(=O)c1cc(F)ccc1n2-c1cn(C2CC2)nc1C(C)O` (stereo partly drawn) [Example 63, (4S)-11-(1-cyclopropyl-3-(1-hydroxyethyl)-1H-pyrazol-4-yl)-4-ethyl-8-fluoro-4-hydroxy-1,12-dihydro-14H-pyrano[3,4:6,7] indolizino[2,1-b]quinoline-3,6,14(4H,11H)-trione]: the IC50 in experiment [1] (setting [5]) is 200 to 500 nM; in experiment [2] (HCT-116, 72 h) it was < 20 nM.

As to `CC[C@@]1(O)C(=O)OCc2c1cc1n(c2=O)Cc2c-1c(=O)c1cc3c(cc1n2CCN(C)C1CCCC1)OCO3` [Example 179], in experiment [1] (setting [5]), the half-maximal inhibitory concentration (IC50) was 200 to 500 nM.

For `CC[C@@]1(O)C(=O)OCc2c1cc1n(c2=O)Cc2c-1c(=O)c1cc(F)ccc1n2CCN1CCCC1` [Example 193], the 50% inhibitory concentration (IC50) in experiment [1] (setting [5]) is 200 to 500 nM.

In the case of `CC[C@@]1(O)C(=O)OCc2c1cc1n(c2=O)Cc2c-1c(=O)c1cc(F)c(CO)cc1n2C1CCCC1` [Example 291, (S)-11-cyclopentyl-4-ethyl-8-fluoro-4-hydroxy-9-(hydroxymethyl)-1,12-dihydro-14H-pyrano[3,4:6,7]indolizino[2,1-b]quinoline-3,6,14(4H,11H)-trione], the IC50 in experiment [1] (setting [3]) lay in the range of 200 to 500 nM.

On to `CC[C@@]1(O)C(=O)OCc2c1cc1n(c2=O)Cc2c-1c(=O)c1cc(F)c(CC(C)O)cc1n2C1CCCC1` (stereo partly drawn) [Example 292, (4S)-11-cyclopentyl-4-ethyl-8-fluoro-4-hydroxy-9-(2-hydroxypropyl)-1,12-dihydro-14H-pyrano[3,4:6,7]indolizino[2,1-b]quinoline-3,6,14(4H,11H)-trione], for which the IC50 in experiment [1] (setting [3]) was in the range of 200 to 500 nM.

As a reminder, the IC50 is the concentration needed to halve the response being measured.
